Test results reported in patent US4753949A, “2-chloronicergoline having antihypoxic activity” (Richter Gedeon Vegyeszeti Gyar Rt., priority 1985, dated 1988).

How the values were obtained:
[1] = Antihypoxic effect: survival time under hypobaric hypoxic conditions (170 mmHg); assay type: in vivo, rats (male SHR); settings: for Antihypoxic effect, survival time as % of the control: rats, 60 min before, control 3.3 ± 0.19 min
Experimental: (§1) The studies were carried out on male SHR rats weighing 160 to 180 g as well as on CFLP mice of both sexes weighing 18 to 21 g. The compounds to be tested were orally administered in a volume of 5 ml/kg of body-weight (in the case of rats) or in a volume of 10 ml/kg of body-weight (in case of mice) at the 60th minute before beginning the experiment.
(§2) The results are expressed as percentages.
Investigation of the antihypoxic effect
[I. Baumel et al.: Proc. Soc. Exp. Ther. Biol. N.Y. 132, 629 (1969]
Rats (n=5) were treated with various doses of the compounds to be tested and after 60 minutes the survival time was measured under hypobaric hypoxic conditions (170 mmHg). In the Table, the survival time is expressed as the percentage of that of the control group.

[2] = Learning-facilitating effect: one-trial passive avoidance; assay type: in vivo, mice (CFLP); settings: for Facilitation of learning, avoidance latency period as % of the control: 5.0 mg/kg p.o., mice, retest after one week, control latency 164.0 ± 34.4 sec (nicergoline), 77.0 ± 16.4 sec (2-chloronicergoline)
Experimental: as §1, §2
Investigation of the learning-facilitating effect
[W. B. Essmann and H. Alpern: Psychol. Rep. 41, 731 (1964)]
Mice (n=10) were treated with 5 mg/kg doses of the compounds to be tested, then the animals were conditioned by the one-trial passive avoidance method. The animals were placed on the platform of the test box, whereupon after entering into the dark box, they received an electric footshock (1.5 mA, 0.3 sec). One week later, the animals were retested: the mean of the latency period of the entering (avoidance) was compared to the control value and expressed as the percentage thereof.

[3] = Antagonism of the acquisition-inhibitory effect of hypoxia (shuttle box, normobaric hypoxia, 6% O2); assay type: in vivo, rats (male SHR); settings: for Antagonism of the acquisition-inhibitory effect of hypoxia, CAR Δ %: rats, third day, 6% O2
Experimental: as §1, §2
Antagonism of the acquisition-inhibitory effect of hypoxia
Rats (n=4) were daily treated with various doses of the compounds to be tested, then conditioned in an automatic six-channel shuttle box (VKI) for 3 days [with the following parameters: 50 cycles/day, 15 seconds intersignal period, 15 seconds light stimulus, 10 seconds light and electric footshock (0.8 mA)] under normobaric hypoxic conditions (6% O2). The values of the conditioned avoidance responses on the third day were expressed as the percentage of the deviation from the control value (CAR Δ%).

[4] = molecular target: α1-adrenergic receptor; assay: α1-adrenergic receptor binding (3H-prazosine); design: species or system Hannover Wistar rats; settings: for IC50 value of α-adrenergic receptor activity (in words) / α-adrenergic receptor activity compared between 2-chloronicergoline and nicergoline (in words): Table 2 discussion; for IC50: rat cortex membrane, 0.5 nmole 3H-prazosine, 23° C., 30 min, pH 8
[5] = molecular target: T1, D-2 receptor (Rattus norvegicus, UniProt P61169); assay: D-2 receptor binding (3H-spiroperidol); design: species or system Hannover Wistar rats; settings: for IC50: rat striatum, 0.5 nmole 3H-spiroperidol, 37° C., 15 min, pH 7.4
T1 construct: the striatum from their cortex was prepared; from tissue; host or cells: striatum membranes of Hannover Wistar rats
T1 sequence (P61169 whole entry): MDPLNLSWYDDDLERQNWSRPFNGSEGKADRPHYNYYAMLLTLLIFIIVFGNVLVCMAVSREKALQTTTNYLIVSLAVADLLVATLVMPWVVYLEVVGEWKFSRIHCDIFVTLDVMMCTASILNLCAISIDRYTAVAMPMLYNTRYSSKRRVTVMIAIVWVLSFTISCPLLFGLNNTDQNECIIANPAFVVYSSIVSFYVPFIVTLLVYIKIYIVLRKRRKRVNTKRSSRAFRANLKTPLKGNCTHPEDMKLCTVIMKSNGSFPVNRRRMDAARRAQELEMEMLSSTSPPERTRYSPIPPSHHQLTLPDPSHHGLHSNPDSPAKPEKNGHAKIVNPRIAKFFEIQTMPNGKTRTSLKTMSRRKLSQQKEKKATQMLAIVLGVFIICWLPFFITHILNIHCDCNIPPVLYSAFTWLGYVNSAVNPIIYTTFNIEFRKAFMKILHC
Experimental: Investigation of the D-2 receptor binding
Hannover Wistar rats were decapitated and the striatum from their cortex was prepared. The striata were homogenized in a 10-fold volume of a cold buffer solution (50 mmoles of TRIS HCl, 120 mmoles of NaCl, 2 mmoles of KCl, 1 mmole of MgCl2 and 5 mmoles of CaCl2 at pH 7.4) and centrifuged at 45000 g for 15 minutes.
For investigating the D-2 receptor binding, a membrane preparation, a buffer, a ligand (0.5 nmole of ^3 H-spiroperidol) and the compound to be tested in a defined concentration were used in a total volume of 2 ml.

[6] = tested on: 45Ca2+ uptake into synaptosomes; assay: 45Ca2+ uptake into synaptosomes; assay type: biochemical; settings: rat brain cortex synaptosomes, K+ (45 mmoles) induced, 37° C., pre-incubation 20 min; read-out: IC50 45Ca2+ (synaptosomal uptake)
Experimental: Investigation of the ^45 Ca^2+ uptake into synaptosomes
The synaptosomal fraction was prepared from rat brain cortex according to the method of Wu et al. [J. Neurochem. 39, 700 (1982)], with a protein content of 20 mg/ml.
For the experiment, a buffer solution (112 mmoles of NaCl, 5 mmoles of KCl, 1.3 mmoles of MgCl2, 1.2 mmoles of NaH2 PO4, 1.2 mmoles of CaCl2, 10 mmoles of glucose and 20 mmoles of TRIS adjusted to pH 7 by carbogen at 37° C.) was used. The mixture containing the buffer solution, the compound to be tested and 1 mg of synaptosomes in a total volume of 1 ml was pre-incubated at 37° C. for 20 minutes and then, the K^+ (45 mmoles) induced ^45 Ca^2+ […] and, for control, the Na^+ (45 mmoles) induced ^45 Ca^2+ uptake were measured. The reaction was stopped by adding 5 ml of a buffer solution (120 mmoles of NaCl, 5 mmoles of KCl, 5 mmoles of EGTA and 20 mmoles of TRIS, at pH 7.4). […] The radioactivity remaining on the filter was determined in 10 ml of scintillation solution.

[7] = molecular target: T2, α2-adrenergic receptor (Rattus norvegicus, UniProt P22909); settings: versus nicergoline
T2 sequence (P22909 1-465): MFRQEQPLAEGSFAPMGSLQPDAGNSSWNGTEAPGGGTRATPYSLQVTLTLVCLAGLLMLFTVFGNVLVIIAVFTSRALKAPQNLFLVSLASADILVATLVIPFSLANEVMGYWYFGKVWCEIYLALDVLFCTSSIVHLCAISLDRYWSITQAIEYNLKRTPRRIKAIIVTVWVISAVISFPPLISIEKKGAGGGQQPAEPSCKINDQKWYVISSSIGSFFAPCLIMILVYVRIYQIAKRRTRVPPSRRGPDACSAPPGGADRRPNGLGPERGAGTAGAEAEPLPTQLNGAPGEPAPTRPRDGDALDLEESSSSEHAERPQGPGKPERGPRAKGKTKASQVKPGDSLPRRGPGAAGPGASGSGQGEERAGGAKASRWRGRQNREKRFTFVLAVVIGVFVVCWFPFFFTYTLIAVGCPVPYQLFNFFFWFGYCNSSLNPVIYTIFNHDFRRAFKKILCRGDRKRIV
Experimental: (§3) For the determination of the non-specific binding, 10 μmoles of phentolamine were used. Investigation of the α2 -adrenergic receptor binding
(§4) Hannover Wistar rats were decapitated, their cortexes were prepared and homogenized in a 30-fold volume of a buffer solution (50 μmoles of TRIS HCl, at pH 7.4). The membrane was centrifuged at 45000 g twice for 15 minutes and then suspended in the buffer in a concentration of 50 ml/g (in a protein concentration of 0.9 to 1.0 mg/ml).
(§5) For investigating the α2 -receptor binding, a membrane preparation, a ligand (1.0 nmole of ^3 H Rx 781094=^3 H-1 dazoxane) and the compound to be tested were used in a total volume of 1 ml. After an incubation at 23° C. for 20 minutes, the samples were filtered through a Whatman GF/B filter and washed 4 times with 4 ml of buffer solution each.
(§6) For the determination of the non-specific binding, 10 μmoles of phentolamine were used.

[8] = molecular target: T2, α2-adrenergic receptor; assay: biochemical
Experimental: as §3, §4, §5, §6

[9] = literature; cited from earlier work
[10] = tested on: α-adrenergic receptor; settings: Bernardi et al. 1975; cited from earlier work

| SMILES | hypoxic tolerance (in words) ([1]; 1.0 mg/kg) | Antihypoxic effect, survival time as % of the control ([1]; 1.0 mg/kg p.o.) [%] | Antihypoxic effect, survival time as % of the control ([1]; 2.5 mg/kg p.o.) [%] | Facilitation of learning, avoidance latency period as % of the control [2] [%] | learning-facilitating effect compared with nicergoline (in words) ([2]; same doses, versus nicergoline) | Antagonism of the acquisition-inhibitory effect of hypoxia, CAR Δ % ([3]; 2.5 mg/kg p.o.) [%] | dose normalizing deteriorated performance under normobaric hypoxia, times lower than that of nicergoline ([3]; versus nicergoline) [times] | IC50 value of α-adrenergic receptor activity (in words) [4] | α-adrenergic receptor activity compared between 2-chloronicergoline and nicergoline (in words) [4] | IC50 [4] [nM] | α-adrenoceptor selectivity (in words) ([4]; shown by D-2/α1 selectivity ratio) | IC50 [5] [nM] | Selectivity ratio D-2/α1 ([5]; ratio of IC50 values) [nmole/nmole] | D-2 receptor activity, times lower than that of nicergoline ([5]; versus nicergoline) [times] | IC50 [6] [µM] | α2-adrenoceptor activity, times as high as that of nicergoline [7] | IC50 [8] [nM] | vasodilatory effect (in words) [9] | α-adrenerg blocking effect (in words) [10] | Antagonism of the acquisition-inhibitory effect of hypoxia, CAR Δ % ([3]; 10.0 mg/kg p.o.) [%] |
| --- | --- | --- | --- | --- | --- | --- | --- | --- | --- | --- | --- | --- | --- | --- | --- | --- | --- | --- | --- | --- |
| CO[C@]12C[C@@H](COC(=O)c3cncc(Br)c3)CN(C)[C@@H]1Cc1c(Cl)n(C)c3cccc2c13 [2-Chloronicergoline, 2-chloronicergoline] | significantly increased | 155 | 276 | 182 | significantly better than that of nicergoline | 150 | 4 | low | practically identical | 9.5 | pronounced | 877 | 92.3 | 12 | 7 | about 13 times | 24.2 | – | – | – |
| CO[C@]12C[C@@H](COC(=O)c3cncc(Br)c3)CN(C)[C@@H]1Cc1c(Br)n(C)c3cccc2c13 [2-bromonicergoline] | – | – | – | – | – | – | – | – | – | – | – | – | – | – | – | – | – | vasodilatory | α-adrenerg blocking effect | – |
| CO[C@]12C[C@@H](COC(=O)c3cncc(Br)c3)CN(C)[C@@H]1Cc1cn(C)c3cccc2c13 [Nicergoline, 1,6-dimethyl-10α-methoxyergoline-8β-methanol 5-bromonicotinate] | – | 103 | 109 | 131 | – | – | – | low | practically identical | 5.3 | – | 71.4 | – | – | 26.7 | – | 176 | peripheral vasodilatory agent | – | 150 |
